Data set [1] deals with T1, recombinant human NAAA protein (Homo sapiens, UniProt Q02083).
T1 construct: purchased R&D Systems (Shanghai, China)
T1 sequence (Q02083 29-359): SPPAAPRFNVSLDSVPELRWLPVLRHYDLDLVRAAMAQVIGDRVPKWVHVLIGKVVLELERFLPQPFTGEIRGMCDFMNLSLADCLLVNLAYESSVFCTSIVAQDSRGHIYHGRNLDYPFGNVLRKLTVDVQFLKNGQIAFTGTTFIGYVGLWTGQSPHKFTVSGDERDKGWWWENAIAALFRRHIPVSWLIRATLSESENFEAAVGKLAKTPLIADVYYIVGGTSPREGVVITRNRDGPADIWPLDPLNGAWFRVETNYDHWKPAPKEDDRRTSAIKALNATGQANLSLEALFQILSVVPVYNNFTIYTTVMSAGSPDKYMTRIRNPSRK
In words: Fluorometric NAAA activity assay (PAMCA hydrolysis). The class given is biochemical. The protocol:
(§1) Fluorometric NAAA activity measurement was used to evaluate the natural products inhibitory potency towards NAAA as previously reported with minor modifications ([West et al., 2012a]; [West et al., 2012b]). Briefly, in our initial screening, recombinant human NAAA protein was diluted in NAAA buffer (3 mM DTT, 0.1% Triton X-100, 0.05% BSA, 150 mM NaCl, pH 4.5) to 0.25 µg/ml and then 20 µL were transferred to a 96-well half-volume black plate followed by the addition of 2 µL of DMSO-diluted compounds at a final concentration of 50 µM. After shaking for 10 min on a shaking plate, 28 µL of the N-(4-methylcoumarin)-palmitamide (PAMCA) substrate in assay buffer (final concentration: 25 µM) were added, and the reaction was allowed to proceed at 37 °C for 30 min, then enzyme activity was monitored at a wavelength of 460 nm (excitation wavelength: 360 nm) on a multimode reader (Mithras LB 943, Berthold, Germany). Compounds showing > 50% inhibition were subjected to a series of two-fold dilutions for IC50 testing.
Although several compounds have been discovered as NAAA inhibitors, reports on natural derivatives are limited. Here, we constructed a small library of 465 natural compounds consisting of alkaloids, flavonoids, coumarins, terpenoids, polyacetylenes, and aliphatics for activity screening. First, we established a high-throughput screening system for NAAA inhibitors using the fluorogenic compound N-(4-methyl coumarin) palmitamide (PAMCA) as hydrolyzed substrate ([West et al., 2012b]). PAMCA was metabolized to the fluorescent 7-amino-4-methyl coumarin (AMC) and palmitic acid by NAAA at pH 4.5 ( Figure 1A ). […] To further confirm the effectiveness of the screening system, another two reported potent NAAA inhibitors, F96 and AM9053, were tested.

Data set [2] deals with NAAA. As to conditions: read-out: IC50, NAAA inhibition (reported), cited from earlier work.
Data set [3] relates to LPS-induced BV-2 cells. In words: Cellular PEA and OEA levels in LPS-induced BV-2 cells (HPLC-MS/MS). The class given is cell-based. As to conditions: 10 μM, LPS 6 h, compared to LPS-treated control. Here is the method: (§2) The microglia cell line BV-2 was cultured in DMEM medium containing 10% fetal bovine serum and antibiotics (100 U/ml penicillin, 100 µg/ml streptomycin) and maintained in a humidified 5% CO2 incubator at 37°C. For the experiment, cells were seeded overnight into a 24-well plate for the cytokine assay or into 100-mm dishes for NAE extraction and quantification. The next day, the cells were incubated with fresh culture medium containing the indicated concentration of atractylodin for 0.5 h and following lipopolysaccharide (LPS) treatment (1 μg/ml). Cells incubated with vehicle only (DMSO, 0.1%) were used as control.
FAEs were extracted from BV-2 cells as previously reported ([Yang et al., 2015]). […] An ABI 3200 Q-Trap mass spectrometer (Applied Biosystems, Concord, Canada equipped with a 1100-LC system (Agilent, Shanghai, China) was used in this experiment. The precursor/product ion transitions in multiple reaction monitoring mode (MRM) were used for mass analysis and quantitation. The molecular ions were monitored at m/z 300.2/62.0 for PEA, m/z 326.1/62.0 for OEA, m/z 348.00/62.00 for AEA, m/z 379.10/287.10 for 2-AG, and m/z 313.1/62.0 for C17:1 FAE.
To further investigate the contribution of endogenous fatty acid ethanolamide to the anti-inflammatory effect of atractylodin, cellular PEA and OEA levels were measured by HPLC-MS/MS analysis. […]

Data set [4] relates to LPS-induced BV-2 microglial cells. In words: Nitrite production in LPS-induced BV-2 cells (Griess reagent). It is filed as cell-based. Here is the method: as §2
The concentration of nitrite in the culture medium was determined using a Griess reagent kit that reflected the amount of NO released by cultured cells. Culture supernatants (75 μl) were reacted with an equal volume of Griess reagent kit for 30 min at room temperature, and the absorbance of the diazonium compound at a wavelength of 560 nm was measured.
The cytotoxicity of the NAAA inhibitors on BV-2 cells was assessed using CCK-8. […] NAAA is highly expressed in immune cells, including tissue macrophages, monocytes, and microglia. […] The concentrations of nitrite were monitored using the Griess reagent kit.

Data set [5] relates to LPS-induced BV-2 cells. In words: Pro-inflammatory cytokine release in LPS-induced BV-2 cells (ELISA). To be noted: culture supernatant. It is filed as cell-based. Here is the method:
as §2
LPS was used to activate BV-2 cells to further assess the anti-inflammatory effects of atractylodin. […] Moreover, the ability to inhibit these inflammatory factors was stronger than the positive control drug dexamethasone (Dex) at a concentration of 10 µM ( Figure 6 ).

Substrate in data set [6]: CCCCCCCCCCCCCCCC(=O)Nc1ccc2c(C)cc(=O)oc2c1
The data set is described as follows: Fluorometric NAAA activity assay (PAMCA hydrolysis). The class given is biochemical, human. To be noted: other: pH 4.5, 37.0 °C. Here is the method:
as §1
Although several compounds have been discovered as NAAA inhibitors, reports on natural derivatives are limited. Here, we constructed a small library of 465 natural compounds consisting of alkaloids, flavonoids, coumarins, terpenoids, polyacetylenes, and aliphatics for activity screening. […]

Setting [7] is: recombinant human NAAA, PAMCA 25 µM, pH 4.5, 37 °C 30 min, read-out: IC50, NAAA inhibition.

Read-outs that look alike come from different tables or passages of the source.

In the case of `c1cc2c(cc1[C@H]1OC[C@H]3[C@@H]1CO[C@@H]3c1ccc3c(c1)OCO3)OCO2` [sesamin], the IC50 in data set [1] (setting [7]) was determined as 30.2 ± 2.09 µM.

`CC(=O)Oc1cccc2c1C(=O)c1c(OC(C)=O)cc(C(=O)O)cc1C2=O` [diacerein]: in data set [2] (ref Petrosino et al., 2015), the IC50 is 7.2 µM.

For the molecule `C/C=C/C#CC#C/C=C/c1ccco1` [atractylodin], in data set [3], the “cellular OEA level” value is listed as “significantly increased” and the “cellular PEA level” value was “significantly increased”. The “decrease of LPS-induced nitrite production” value in data set [4] (10 µM, 30 min pre-incubation, LPS 24 h, compared with vehicle group) is 68.21%. Further, the “inhibition of nitrite generation” value in data set [4] (1–10 µM, LPS-induced BV-2 cells) is given as “in a dose-dependent manner”. For the same molecule, in data set [5], the “inhibition of IL-1β production” value is given as “in a dose-dependent manner”, the “inhibition of IL-6 production” value is on record as “in a dose-dependent manner” and the “inhibition of TNF-α production” value was “in a dose-dependent manner”. Also, in data set [1], the IC50 was 2.81 µM; the “time course of NAAA inhibition (pre-incubation with hNAAA)” value was “rapid and unaffected by longer pre-incubation”. Besides, in data set [1] (atractylodin 3 µM), the “mechanism of NAAA inhibition (Lineweaver-Burk plot)” value is reported as “competitive”. In addition, the “NAAA activity after dialysis of the NAAA-inhibitor mixture” value in data set [1] (dialysis in PBS buffer) is listed as “fully recovered”.

Take `C\C(C=C=C1C(C)(C)C[C@H](O)C[C@@]1(C)O)=C/C=C/C(C)=C/C=C/C=C(C)/C=C/C=C(\C)C(=O)C[C@@]12O[C@]1(C)C[C@@H](O)CC2(C)C` [fucoxanthinol]: the IC50 in data set [2] (ref Jin et al., 2020) is 12.8 µM.

Consider `O=c1cc(-c2ccc(O)c(-c3c(O)cc(O)c4c(=O)cc(-c5ccc(O)cc5)oc34)c2)oc2cc(O)cc(O)c12` [amentoflavone], for which, in data set [1] (setting [7]), the IC50 was found to be 37.8 ± 4.04 µM.

As to `COc1ccc2cc1Oc1ccc(cc1)CC1c3cc(c(OC)cc3CCN1C)Oc1c(OC)c(OC)cc3c1C(C2)N(C)CC3` [D-tetrandrine], in data set [1] (setting [7]), the IC50 came to 52.9 ± 3.05 µM.

On to `COc1cc(C[C@H](C)[C@H](C)Cc2ccc3c(c2)OCO3)ccc1O` [anwuligan], for which the IC50 in data set [1] (setting [7]) worked out at 23.8 ± 1.06 µM.

B1: recombinant human NAAA protein (Homo sapiens) (protein)
chain: SPPAAPRFNVSLDSVPELRWLPVLRHYDLDLVRAAMAQVIGDRVPKWVHVLIGKVVLELERFLPQPFTGEIRGMCDFMNLSLADCLLVNLAYESSVFCTSIVAQDSRGHIYHGRNLDYPFGNVLRKLTVDVQFLKNGQIAFTGTTFIGYVGLWTGQSPHKFTVSGDERDKGWWWENAIAALFRRHIPVSWLIRATLSESENFEAAVGKLAKTPLIADVYYIVGGTSPREGVVITRNRDGPADIWPLDPLNGAWFRVETNYDHWKPAPKEDDRRTSAIKALNATGQANLSLEALFQILSVVPVYNNFTIYTTVMSAGSPDKYMTRIRNPSRK
notes: purchased R&D Systems (Shanghai, China)
Turning to B1, the Km in data set [6] is on record as 17.92 ± 3.54 µM.

The record behind these values is publication PMC7565389, “Natural Potent NAAA Inhibitor Atractylodin Counteracts LPS-Induced Microglial Activation” (Frontiers in Pharmacology, 2020).
